Reference: patent publication US12128072B2, “Hepatocytes and hepatic non-parenchymal cells, and methods for preparation thereof” (The University of Tokyo, priority 2015, dated 2024)

System: mouse CD45-FLK1+CD31+CD34+ cells (liver sinusoidal endothelial progenitor cells)
Assay: Expression of liver sinusoidal endothelial cell marker genes by quantitative RT-PCR in mouse embryonic liver FLK1+CD31+CD34+ cells
Format: cell-based
Conditions: 5 days after addition of A83-01, versus day 0 before addition; FIG. 45
Protocol: TRIzol reagent (Life Technologies) or NucleoSpin RNA XS (MACHEREY-NAGAL, Duren, Germany) was used to extract the RNA. The remaining genomic DNA was digested using DNaseI (Life Technologies), and then a PrimeScript II 1st strand cDNA Synthesis Kit (Takara Bio, Shiga, Japan) was used to synthesize single-stranded cDNA. The quantitative RT-PCR was carried out using SYBR Premix EX TaqII (Takara Bio, Shiga, Japan), and the data were calculated according to the ddCt method with β-actin as the standardization control.
Liver was collected from a 12.5-day-old mouse embryo (C57BL/6 mouse). The liver was minced and digested for 10 minutes with Liver Digestion Medium (Life Technologies, California, US). The digested embryonic mouse hepatocytes were subjected to hemolysis and passed through a 70 μm cell strainer (BD Bioscience, New Jersey, US). […]
The FLK1^+CD31^+CD34^+ cells separated above were also seeded in a fibronectin-coated plate to 15,000 cells/cm^2 and cultured in endothelial cell medium. […] The cell count was calculated using a hemocytometer, after dissociating the cells using 0.05% trypsin/0.5 mM EDTA.

SMILES: Cc1cccc(-c2nn(C(=S)Nc3ccccc3)cc2-c2ccnc3ccccc23)n1 [A83-01, 3-(6-methyl-2-pyridinyl)-N-phenyl-4-(4-quinolinyl)-1H-pyrazolo-1-carbothioamide]
- expression of the mature liver sinusoidal endothelial cell marker genes Stab2, F8 and Lyve1: significantly induced expression
